Test system: Human cancer cell lines Eca-109, AGS, BGC-823, DU145, SPC-A-1, Caco-2, LS-174T, A375, Raji, MCF-7, Bcap-37, HepG2
Experiment: In vitro MTT assay of inhibition of cancer cell growth
Format: cell-based
Settings: 12 human cancer cell lines, 48 hrs incubation, IqA 0.3-100 μg/ml, IqB 0.03-10 μg/ml, absorbance 492 nm, IC50 values calculated but not given
Description: An in vitro assay was conducted to evaluate the efficacy of IqA and IqB in inhibiting the growth of cancer cells.
Human cancer cell lines, i.e., Eca-109 (esophagus carcinoma cell line), AGS and BGC-823 (gastric adenocarcinoma cell lines), DU145 (prostate carcinoma cell line), SPC-A-1 (lung adenocarcinoma cell line), Caco-2 and LS-174T (colonic carcinoma cell lines), A375 (malignant melanoma cell line), Raji (Burkitt's lymphoma cell line), MCF-7 and Bcap-37 (breast carcinoma cell lines), HepG2 (hepatoma cell line), were purchased from the Cell Bank of Shanghai Institute of Cell Biology, Chinese Academy of Sciences, and cultured in Iscove's Modified Dulbecco's Medium (IMDM) containing 10% fetal bovine serum (FBS) in an incubator at 37° C. under 5% CO2. Cells of 70-80% confluence were trypsinized, resuspended in IMDM medium containing 10% FBS at 1×10^5 cells/ml, and seeded in 96-well plates (100 μl in each well). The plates were incubated at 37° C. under 5% CO2 overnight.
IqA and IqB were provided by Shandong Xinhua Pharmaceutical CO. Ltd. IqA and IqB stock solutions were prepared at the concentrations of 10 mg/ml and 1 mg/ml in dimethyl sulfoxide (DMSO), respectively. The IqA solution was diluted with the growth medium into a series of solutions at different concentrations. […]
150 μl of DMSO was added to each well. […] Absorbance was measured at 492 nm using a microplate reader. […]

CCCCCC/C=C\CCCCCCCCCC1=CC(=O)C=C(OC)C1=O [IqA, irisqinone A]
inhibition of the proliferation of cancer cells: effectively inhibited the proliferation

CCCCCCCCCCCCCCCCCC1=CC(=O)C=C(OC)C1=O [IqB, irisquinone B]
inhibition of the proliferation of cancer cells: effectively inhibited the proliferation

Source: patent US20050288379A1, “Benzoquinone compounds as anti-cancer agents” (priority 2004, published 2005)
